Where “and” joins values, the source holds several entries; their conditions need not be identical. Equal entries are not always repeated.
Columns and labels:
[1] = biological target: T1, human recombinant adrenergic α2B receptor (Homo sapiens, UniProt P18089); experiment: Radioligand binding, adrenergic α2B ([3H]Rauwolscine); details: for Percentage inhibition of ligand binding, Adrenergic α2B (0.1 μM): compound at 0.1 μM; for Percentage inhibition of ligand binding, Adrenergic α2B (0.1 μM) / inhibition at 0.1 µM / inhibition at 0.03 µM / Percentage inhibition of ligand binding, Adrenergic α2B (0.03 μM): [3H]Rauwolscine, repeat datapoints each shown; for inhibition at 0.1 µM: read-out: Percentage inhibition of ligand binding, Adrenergic α2B (0.1 μM), compound at 0.1 μM; for Ki: read-out: Ki α2B; for inhibition at 0.03 µM: read-out: Percentage inhibition of ligand binding, Adrenergic α2B (0.03 μM), compound at 0.03 μM; for Percentage inhibition of ligand binding, Adrenergic α2B (0.03 μM): compound at 0.03 μM
T1 construct: expressed in transfected cells; host or cells: CHO-K1
T1 sequence (P18089 1-450): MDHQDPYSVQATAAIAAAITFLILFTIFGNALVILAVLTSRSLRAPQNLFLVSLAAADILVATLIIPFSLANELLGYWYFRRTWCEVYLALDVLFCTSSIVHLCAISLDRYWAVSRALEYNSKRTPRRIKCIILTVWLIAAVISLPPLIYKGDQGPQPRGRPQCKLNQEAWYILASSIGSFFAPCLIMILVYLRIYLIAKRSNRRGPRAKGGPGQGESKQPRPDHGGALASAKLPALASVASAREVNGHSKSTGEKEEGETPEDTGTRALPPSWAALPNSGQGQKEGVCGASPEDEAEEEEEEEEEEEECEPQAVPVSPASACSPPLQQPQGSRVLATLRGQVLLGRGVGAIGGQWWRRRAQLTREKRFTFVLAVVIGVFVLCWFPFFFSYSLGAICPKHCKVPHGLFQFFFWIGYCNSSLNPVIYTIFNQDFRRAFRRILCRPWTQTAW
Outline: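 Receptor expressed in CHO-K1 cells, assayed in 50 mM Tris-HCl pH 7.4 with 12.5 mM MgCl2, 1 mM EDTA and 0.2% BSA. Compounds were incubated with 2.5 nM [3H]Rauwolscine for 60 min at 25° C; 10 μM Prazosin defined non-specific binding. Filter counting gave percent inhibition of specific binding.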

[2] = biological target: T2, human recombinant adrenergic α2A receptor (Homo sapiens, UniProt P08913); experiment: Radioligand binding, adrenergic α2A ([3H]MK-912); details: for Percentage inhibition of ligand binding, Adrenergic α2A (0.1 μM): compound at 0.1 μM; for Percentage inhibition of ligand binding, Adrenergic α2A (0.1 μM) / inhibition at 0.1 µM / inhibition at 0.03 µM: [3H]MK-912, repeat datapoints each shown; for inhibition at 0.1 µM: read-out: Percentage inhibition of ligand binding, Adrenergic α2A (0.1 μM), compound at 0.1 μM; for inhibition at 0.03 µM: read-out: Percentage inhibition of ligand binding, Adrenergic α2A (0.03 μM), compound at 0.03 μM
T2 construct: expressed in transfected cells; host or cells: insect Sf9 cells
T2 sequence (P08913 1-465): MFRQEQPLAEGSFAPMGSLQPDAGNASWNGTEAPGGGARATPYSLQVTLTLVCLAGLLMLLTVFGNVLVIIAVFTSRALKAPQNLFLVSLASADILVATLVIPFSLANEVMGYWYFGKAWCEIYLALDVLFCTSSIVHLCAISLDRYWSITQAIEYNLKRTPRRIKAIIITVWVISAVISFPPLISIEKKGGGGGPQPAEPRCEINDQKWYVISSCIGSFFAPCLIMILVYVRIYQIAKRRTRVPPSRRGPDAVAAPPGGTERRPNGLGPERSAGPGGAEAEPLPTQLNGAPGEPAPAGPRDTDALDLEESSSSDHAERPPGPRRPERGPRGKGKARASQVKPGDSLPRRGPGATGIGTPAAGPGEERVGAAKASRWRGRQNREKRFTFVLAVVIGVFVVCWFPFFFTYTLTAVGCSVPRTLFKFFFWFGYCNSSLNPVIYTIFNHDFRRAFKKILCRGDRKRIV
Outline: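 Receptor expressed in Sf9 cells, in 50 mM Tris-HCl pH 7.4, 12.5 mM MgCl2, 2 mM EDTA; compounds incubated with 1 nM [3H]MK-912 for 60 min at 25 °C.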

[3] = biological target: T3, rat adrenergic α1B receptor (Rattus norvegicus, UniProt P15823); experiment: Radioligand binding, adrenergic α1B ([3H]Prazosin); details: [3H]Prazosin, repeat datapoints each shown; for Percentage inhibition of ligand binding, Adrenergic α1B (0.1 μM): compound at 0.1 μM; for inhibition at 0.1 µM: read-out: Percentage inhibition of ligand binding, Adrenergic α1B (0.1 μM), compound at 0.1 μM; for inhibition at 0.03 µM: read-out: Percentage inhibition of ligand binding, Adrenergic α1B (0.03 μM), compound at 0.03 μM
T3 construct: rat adrenergic α1B receptor obtained from Wistar Rat liver; from tissue; host or cells: Wistar rat liver
T3 sequence (P15823 1-515): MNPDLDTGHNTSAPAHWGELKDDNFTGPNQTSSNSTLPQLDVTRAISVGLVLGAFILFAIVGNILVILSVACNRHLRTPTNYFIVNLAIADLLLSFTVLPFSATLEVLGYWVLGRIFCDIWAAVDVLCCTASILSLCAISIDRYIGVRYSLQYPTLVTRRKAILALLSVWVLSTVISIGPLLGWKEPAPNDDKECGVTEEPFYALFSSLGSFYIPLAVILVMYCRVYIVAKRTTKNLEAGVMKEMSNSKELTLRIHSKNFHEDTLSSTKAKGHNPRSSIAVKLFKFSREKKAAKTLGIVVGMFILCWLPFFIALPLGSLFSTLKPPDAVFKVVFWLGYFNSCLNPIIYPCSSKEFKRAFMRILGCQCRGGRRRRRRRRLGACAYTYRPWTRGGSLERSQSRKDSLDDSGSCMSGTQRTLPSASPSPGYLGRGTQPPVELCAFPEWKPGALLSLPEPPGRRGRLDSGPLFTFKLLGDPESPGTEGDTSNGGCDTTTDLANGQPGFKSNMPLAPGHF
Outline: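 Rat α1B receptor from Wistar rat liver was incubated with 0.25 nM [3H]prazosin for 60 min at 25 °C in 50 mM Tris-HCl, pH 7.4, 0.5 mM EDTA. Non-specific binding was defined with 10 μM phentolamine. Bound radioligand was measured by filtration and counting, reported as percent inhibition of specific binding.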

| SMILES | Percentage inhibition of ligand binding, Adrenergic α2B (0.1 μM) [1] | inhibition at 0.1 µM [1] | Percentage inhibition of ligand binding, Adrenergic α2A (0.1 μM) [2] | inhibition at 0.1 µM [2] | Percentage inhibition of ligand binding, Adrenergic α1B (0.1 μM) [3] | inhibition at 0.1 µM [3] | Ki [1] | inhibition at 0.03 µM [1] | Ki [2] | inhibition at 0.03 µM [2] | inhibition at 0.03 µM [3] | Percentage inhibition of ligand binding, Adrenergic α2B (0.03 μM) [1] |
| --- | --- | --- | --- | --- | --- | --- | --- | --- | --- | --- | --- | --- |
| C/C(=C\n1c2c(c3cc(C)ccc31)CN(C)CC2)c1ccncn1 [compound 101] | 76% | 63% | 15% | 14% | 79% | 61% | – | – | – | – | – | – |
| Cc1ccc2c(c1)c1c(n2C2=C(c3ccncc3)CCC2)CCN(C)C1 [compound 114] | 71% | 58% | – | 21% | – | 15% | 17.4 nM | 42% | – | – | – | – |
| Cc1ccc2c(c1)c1c(n2CNc2ccccn2)CCN(C)C1 [compound 120, (2,8-dimethyl-1,2,3,4-tetrahydro-pyrido[4,3-b]indol-5-ylmethyl)-pyridin-2-yl-amine] | 70% | 55% | 48% | 45% | 22% | 21% | 20.5 nM | 39% | 65.8 nM | 25% | 4% | – |
| Cc1ccc(CCn2c3c(c4cc(C)ccc42)CN(C)CC3)cc1 [compound 180, 2,3,4,5-tetrahydro-2,8-dimethyl-5-(4-methylphenethyl)-1H-pyrido[4,3-b]indole] | – | 99% | – | 95% | – | 87% | – | 91% | – | – | 70% | – |
| Cc1ccc(CCn2c3c(c4ccccc42)CN(C)CC3)cc1 [compound 181, 2,3,4,5-Tetrahydro-2-methyl-5-(4-methylphenethyl)-1H-pyrido[4,3-b]indole] | – | 92% | – | 89% | – | 30% | – | 70% | – | – | -4% | – |
| CN1CCc2c(c3ccccc3n2CCc2ccccc2)C1 [compound 182, 2,3,4,5-Tetrahydro-2-methyl-5-phenethyl-1H-pyrido[4,3-b]indole] | – | 91% | – | 69% | – | 29% | – | 83% | – | – | 13% | – |
| C/C(=C\n1c2c(c3cc(Cl)ccc31)CN(C)CC2)c1ccncc1 [compound 185, 8-chloro-2,3,4,5-tetrahydro-2-methyl-5-((E)-2-(pyridin-4-yl)prop-1-enyl)-1H-pyrido[4,3-b]indole] | 97% | 94% | – | 62% | – | 86% | 3.8 nM | 73% | 21 nM | 37% | 63% | 77% |
| C/C(=C\n1c2c(c3cc(C)ccc31)CN(C)CC2)c1ccc(C)nc1 [compound 186] | 101% | 100% | 72% | 54% | 55% | 53% | 0.52 nM | 94% | 11 nM | 53% | 24% | 97% |
| C/C(=C\n1c2c(c3cc(C)ccc31)CN(C)CC2)c1cnc(N(C)C)nc1 [compound 187] | 98% | 84% | 63% and 84% | – | – | 71% | 4.43 nM | 78% | 17.9 nM | 41% | – | – |
| C/C(=C\n1c2c(c3cc(C)ccc31)CN(C)CC2)c1sccc1C [compound 189] | 107% | 104% | 86% | 81% | 31% and 55% | – | 0.86 nM | 96% | 2.86 nM | 71% | 26% | – |
| Cc1ccc2c(c1)c1c(n2C2=C(c3ccc(C)s3)CCC2)CCN(C)C1 [compound 190, 2,8-dimethyl-5-(2-(5-methylthiophen-2-yl)cyclopent-1-enyl)-2,3,4,5-tetrahydro-1H-pyrido[4,3-b]indole] | 99% | 84% | 89% | 70% | 15% | 14% | 2.26 nM | 88% | 12.8 nM | 49% | 9% | – |
| Cc1ccc2c(c1)c1c(n2C2=C(c3ccc4c(ccn4C)c3)CCC2)CCN(C)C1 [compound 191, 2,8-dimethyl-5-(2-(1-methyl-1H-indol-5-yl)cyclopent-1-enyl)-2,3,4,5-tetrahydro-1H-pyrido[4,3-b]indole] | 99% | 89% | 98% | 89% | 20% | 10% | 3.23 nM | 84% | 2.1 nM | 85% | 2% | – |
| CCN1CCc2c(c3cc(C)ccc3n2CCc2ccccc2)C1 [compound 201] | – | 36% | – | 67% | – | 50% | – | 16% | – | – | 22% | – |
| CCN1CCc2c(c3cc(C)ccc3n2CCc2ccc(C)cc2)C1 [compound 202] | – | 22% | – | 92% | – | 52% | – | 7% | – | – | 29% | – |
| CCN1CCc2c(c3cc(C)ccc3n2CC(O)c2ccc(C)cc2)C1 (stereo not shown) [compound 203] | – | 41% | 88% | – | 71% | – | – | 23% | – | – | 37% | – |
